Data published in US20250230470A1, “SAFETY SWITCHES TO CONTROL IN VITRO AND IN VIVO PROLIFERATION OF CELL THERAPY PRODUCTS” (Sana Biotechnology, Inc., priority 2024, published 2025).

Columns and labels:
Format in all cases: cell-based
[1] = system: CDA_AAVS1 iPSCs and pancreatic progenitors; assay: Cell viability after 5-FC (CDA kill switch) in directed differentiation; conditions: 100 μM 5-FC
Procedure: (§1) To validate iCaspase 9 and cytosine deaminase (CDA) kill switch function in vitro, undifferentiated iPSCs and differentiated pancreatic progenitors with either iC9 or CDA knocked into the AURKB or CDK1 loci were tested for selective killing of pluripotent and proliferative cells in a directed differentiation into beta islet cells.
(§2) The kill switch function of CDA, which is inherently specific to proliferative cells, at the AURKB and CDK1 loci was tested in pancreatic progenitor cells generated by directed differentiation from CDA_AURKB iPSCs or CDA_CDK1 iPSCs. […] The partial loss-of-function was similarly observed in the control cell lines with CDA knocked into the AAVS1 locus.

[2] = system: CDA_AURKB iPSCs and pancreatic progenitors; assay: as above
Procedure: as §1, §2

[3] = system: CDA_CDK1 iPSCs and pancreatic progenitors; assay: as above
Procedure: as §1, §2

[4] = system: control iPSC (dko) and day 12 pancreatic progenitor cells; assay: as above; conditions: increasing concentrations of 5-FC
Procedure: as §1, §2

[5] = system: CDA_AAVS1 pancreatic progenitors; assay: Ki67 staining by flow cytometry of pancreatic progenitor cells untreated or treated with 5-FC; conditions: 100 μM 5-FC
Procedure: (§3) In order to test whether the CDA-induced killing was specific to proliferative cells, pancreatic progenitor cells, untreated or treated with 100 μM of 5-FC, were stained for proliferation marker Ki67 and analyzed by flow cytometry.

[6] = system: CDA_AURKB pancreatic progenitors; assay: as above; conditions: 100 μM 5-FC
Procedure: as §3

[7] = system: CDA_CDK1 pancreatic progenitors; assay: as above; conditions: CDA_CDK1 pancreatic progenitor culture; 100 μM 5-FC
Procedure: as §3

With `Nc1nc(=O)[nH]cc1F` [5-FC, 5-fluorocytosine] the cell viability ([1]; CDA_AAVS1 iPSCs) was “no viable CDA_AAVS1 iPSCs”, the viability at 100 µM ([1]; iPSC, read-out: cells remained viable, CDA_AAVS1 pancreatic progenitors) was 50% and the cell killing ([2]; CDA-AURKB pancreatic progenitors, day 12 of differentiation) was “partial loss of CDA function”. The “5-FC concentration at which viability began to decrease” value ([2]; CDA_AURKB iPSCs) was “about 5 μM”, the cell viability ([2]; CDA_AURKB iPSCs, about 100 μM 5-FC) was “complete cell death” and the cell viability ([3]; CDA_CDK1 iPSCs, 100 μM 5-FC) was “complete cell death”. The cell killing ([3]; CDA_CDK1 pancreatic progenitors, day 12 of differentiation) was “partially lost CDA function”, the cell viability [4] was “maintained viability” and the “clearance of Ki-67 expressing cells” value [5] was “clearance of most of the proliferative cells”. The “clearance of Ki-67 expressing cells” value [6] was “a large subset of Ki-67 expressing cells was cleared” and the “clearance of Ki-67 expressing cells” value [7] was “clearance of most of the proliferative cells”.
